IC50 data for 93 compounds are collected here from ChEMBL document CHEMBL4476887, “Lysyl oxidase-like 2 inhibitors and uses thereof” (2018).

pIC50: −log10 of the molar value.

For the assay, the target named is T1, Lysyl oxidase homolog 2 (Homo sapiens, UniProt Q9Y4K0).
T1 sequence (Q9Y4K0 whole entry): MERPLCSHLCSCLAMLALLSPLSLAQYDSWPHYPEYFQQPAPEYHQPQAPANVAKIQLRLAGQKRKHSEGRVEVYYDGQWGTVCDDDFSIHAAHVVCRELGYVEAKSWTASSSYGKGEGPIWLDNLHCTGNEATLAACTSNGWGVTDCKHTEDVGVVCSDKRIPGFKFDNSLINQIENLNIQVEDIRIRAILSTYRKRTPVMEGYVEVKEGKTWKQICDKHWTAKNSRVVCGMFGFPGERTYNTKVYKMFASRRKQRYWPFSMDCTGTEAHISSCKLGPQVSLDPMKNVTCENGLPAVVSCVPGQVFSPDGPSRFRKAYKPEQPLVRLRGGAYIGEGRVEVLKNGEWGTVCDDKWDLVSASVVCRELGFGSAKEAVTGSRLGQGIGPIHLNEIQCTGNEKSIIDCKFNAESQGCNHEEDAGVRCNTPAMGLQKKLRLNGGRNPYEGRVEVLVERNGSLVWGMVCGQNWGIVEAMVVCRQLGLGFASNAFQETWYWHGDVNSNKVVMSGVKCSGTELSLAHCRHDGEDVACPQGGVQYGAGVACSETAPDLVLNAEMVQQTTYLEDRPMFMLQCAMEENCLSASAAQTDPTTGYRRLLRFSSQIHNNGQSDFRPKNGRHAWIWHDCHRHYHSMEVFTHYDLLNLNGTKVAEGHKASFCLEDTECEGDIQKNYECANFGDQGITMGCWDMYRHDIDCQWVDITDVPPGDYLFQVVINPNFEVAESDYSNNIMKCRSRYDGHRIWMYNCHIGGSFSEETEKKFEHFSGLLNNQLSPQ
Description: Inhibition of human LOXL2 expressed in CHO cells incubated for 2 hrs followed by 1,5-Diaminopentane addition by Amplex Red fluorescence based assay. In kind it is cell-based.
The pIC50 is −log10 of the IC50, conventionally taken in molar units. Higher therefore signals a low IC50. `NCCc1nc(-c2ccccc2)cs1`: the pIC50 was 6.00 to 6.52.

For `NCc1nc2ccccc2s1`, the pIC50 was greater than 6.52.

Compound `NCc1cc2ccccc2s1` gave a pIC50 of 6.00 to 6.52.

Take `NCCc1nc2ccccc2s1`: the pIC50 is greater than 6.52.

`NCc1nc2ccccc2[nH]1` showed a pIC50 greater than 6.52.

As to `NCc1cc2cc(Br)ccc2o1`, the pIC50 was less than 6.00.

The compound `NCCc1nc2ccc(F)cc2[nH]1` had a pIC50 of less than 6.00.

As to `NCc1cnccn1`, the pIC50 is greater than 6.52.

`NCc1cc2ccc(-c3cnc4ccccc4c3)cc2c(=O)[nH]1` showed a pIC50 greater than 6.52.

In turn, `NCCc1nc2cccc(Cl)c2o1` had a pIC50 greater than 6.52.

`NCCc1cc2ccccc2o1` had a pIC50 of less than 6.00.

`NCc1cc(Oc2cccc(C(=O)Nc3ccccc3)c2)n2nccc2n1` had a pIC50 of 6.00 to 6.52.

Turning to `NCCc1nc2cc(Cl)ccc2s1`, the pIC50 is greater than 6.52.

As to `NCc1cc2ccc(-c3cncc(C(=O)Nc4ccccc4)c3)cc2s1`, the pIC50 was greater than 6.52.

`NCCc1cc2ccccc2[nH]1` gave a pIC50 of less than 6.00.

Take `NCCc1cc2ccccc2s1`: the pIC50 was less than 6.00.

The compound `Cc1cc(Br)cc2cc(CN)oc12` gave a pIC50 greater than 6.52.

With `CC(C)(C)c1ccc2sc(CN)cc2c1`, the negative-log IC50 (pIC50) was greater than 6.52.

For the compound `NCc1cc2ccc(Br)cc2c(=O)[nH]1`, the pIC50 is greater than 6.52.

Compound `NCc1cc2cc(-c3cccnc3)ccc2[nH]1` had a pIC50 greater than 6.52.

In turn, `NCc1nc2cc(Cl)ccc2[nH]1` had a pIC50 greater than 6.52.

Regarding `COc1ncccc1-c1ccc2[nH]c(CN)cc2c1`, the pIC50 is 6.00 to 6.52.

In turn, `NCCc1nc2cc(F)ccc2s1` gave a pIC50 greater than 6.52.

In the case of `NCCc1nc2cc(Cl)ccc2o1`, the negative-log IC50 (pIC50) is greater than 6.52.

Regarding `NCc1cc2ccc(-c3ccc(C(=O)Nc4ccccc4)nc3)cc2s1`, the pIC50 was greater than 6.52.

For the compound `COc1ccc2[nH]c(CN)cc2c1`, the pIC50 was 6.00 to 6.52.

In the case of `Cn1cc(-c2ccc3[nH]c(CN)cc3c2)cn1`, the pIC50 was 6.00 to 6.52.

Compound `Cc1c(CN)oc2ccc(F)cc12` gave a pIC50 of less than 6.00.

Take `NCCc1nc2cc(Cl)ccc2[nH]1`: the pIC50 is less than 6.00.

`NCc1ccnc(Oc2cccc(C(=O)Nc3ccccc3)c2)n1` showed a pIC50 of 6.00 to 6.52.

`NCc1cc2ccncc2[nH]1` gave a pIC50 greater than 6.52.

As for `NCc1cnnc(Oc2cccc(C(=O)Nc3ccccc3)c2)c1`, the pIC50 was greater than 6.52.

On to `NCc1cc2c(cn1)ncn2-c1cccc(C(=O)Nc2ccccc2)c1`, for which the pIC50 was greater than 6.52.

For the compound `NCCc1nn2cnnc2s1`, the pIC50 was less than 6.00.

`NCc1cc2cc(C3CC3)ccc2s1`: the pIC50 was greater than 6.52.

Consider `NCc1cc2cc(-c3ccc(OCc4ccccc4)nc3)ccc2[nH]1`, for which the negative-log IC50 (pIC50) is 6.00 to 6.52.

Take `NCc1cc2cc(-c3cncc(O)c3)ccc2[nH]1`: the pIC50 is 6.00 to 6.52.

In turn, `NCc1nc2cc3ccccc3cc2[nH]1` showed a negative logarithm of the IC50 (pIC50) greater than 6.52.

In turn, `NCc1cc2ccccc2c(=O)[nH]1` showed a negative logarithm of the IC50 (pIC50) of 6.00 to 6.52.

`NCc1cc2ccc(C#Cc3ccccc3)cc2c(=O)[nH]1` gave a pIC50 greater than 6.52.

The compound `NCc1cc2ccc(Br)cc2s1` showed a pIC50 greater than 6.52.

Regarding `Cn1c(CN)cc2ccccc21`, the pIC50 is less than 6.00.

In turn, `NCC1=CC(=O)c2ccccc2C1=O` gave a negative-log IC50 (pIC50) greater than 6.52.

The compound `NCc1nc2cc(Cl)ccc2s1` had a pIC50 of 6.00 to 6.52.

Consider `NCc1cc(=O)[nH]c2ccccc12`, for which the pIC50 is less than 6.00.

Take `NCc1ccnnc1`: the pIC50 is 6.00 to 6.52.

`NCCc1nc2ccccc2o1` gave a pIC50 of 6.00 to 6.52.

As for `NCc1cc(Nc2cccc(C(=O)Nc3ccccc3)c2)n2ccnc2n1`, the pIC50 is greater than 6.52.

`NCc1nc2ccccc2o1`: the pIC50 is less than 6.00.

As for `NCc1cc2ccc(-c3cncc(C(=O)NCc4ccccc4)c3)cc2s1`, the pIC50 is greater than 6.52.

`NCc1cc2cc(-c3cccnc3)ccc2s1` showed a pIC50 greater than 6.52.

`NCc1cc2cc(F)ccc2[nH]1` gave a pIC50 of less than 6.00.

`NCc1cc2c(cn1)ncn2Cc1cccc(C(=O)Nc2ccccc2)c1` showed a pIC50 of less than 6.00.

For the compound `NCc1cccnn1`, the negative logarithm of the IC50 (pIC50) was greater than 6.52.

In turn, `Cc1c(F)ccc2cc(CN)[nH]c12` had a pIC50 of less than 6.00.

Compound `NCc1ccc2[nH]cnc2c1` showed a negative logarithm of the IC50 (pIC50) of less than 6.00.

`NCc1sc2ccccc2c1Cl` had a pIC50 of 6.00 to 6.52.

Take `NCc1cc2ncccc2[nH]1`: the negative-log IC50 (pIC50) was greater than 6.52.

Compound `NCc1cc(=O)c2cc(Br)ccc2s1` gave a pIC50 greater than 6.52.

`NCc1cc2cc(F)ccc2s1` gave a pIC50 greater than 6.52.

In the case of `NCc1nc2cc(Br)cnc2[nH]1`, the pIC50 was greater than 6.52.

`C#Cc1ccc2cc(CN)[nH]c(=O)c2c1` showed a pIC50 greater than 6.52.

With `NCc1cc(O)n2nccc2n1`, the pIC50 is 6.00 to 6.52.

As to `NCc1cc2cc(-c3ccc(Oc4ccccc4)nc3)ccc2[nH]1`, the pIC50 was greater than 6.52.

For `COc1ccc(-c2ccc3[nH]c(CN)cc3c2)cn1`, the pIC50 is 6.00 to 6.52.

The compound `NCc1cc2ccc(-n3cc(Br)cn3)cc2c(=O)[nH]1` had a pIC50 greater than 6.52.

In the case of `NCc1ccc2ncccc2c1`, the pIC50 is less than 6.00.

Consider `NCc1cc2cc(I)ccc2[nH]1`, for which the pIC50 was greater than 6.52.

Compound `NCc1cc2cc(-c3cncc4ccccc34)ccc2[nH]1` gave a pIC50 greater than 6.52.

The compound `NCCc1nc(-c2ccncc2)cs1` showed a negative logarithm of the IC50 (pIC50) of 6.00 to 6.52.

In turn, `Cn1cnc2ccc(-c3ccc4[nH]c(CN)cc4c3)cc21` had a pIC50 greater than 6.52.

As for `NCc1cc2ccc(-c3cccnc3)cc2s1`, the negative logarithm of the IC50 (pIC50) is greater than 6.52.

`NCc1cc2cc(-c3ccc4nccn4c3)ccc2[nH]1` had a pIC50 greater than 6.52.

In turn, `COC(=O)c1cncc(-c2ccc3[nH]c(CN)cc3c2)c1` gave a negative logarithm of the IC50 (pIC50) greater than 6.52.

Compound `NCc1cc2cc(Cl)ccc2[nH]1` had a pIC50 of 6.00 to 6.52.

Regarding `Cc1ccc2[nH]c(CN)cc2c1`, the pIC50 was 6.00 to 6.52.

For `NCc1cc2ccccc2o1`, the negative logarithm of the IC50 (pIC50) is 6.00 to 6.52.

On to `NCc1ccc2[nH]ccc2n1`, for which the negative-log IC50 (pIC50) was less than 6.00.

On to `COc1ccc2cc(CN)[nH]c(=O)c2c1`, for which the negative logarithm of the IC50 (pIC50) is greater than 6.52.

The compound `NCc1cc2ccc(-c3ccc(F)cc3)cc2c(=O)[nH]1` showed a pIC50 greater than 6.52.

Consider `NCc1cc2cc(Br)ccc2s1`, for which the pIC50 is greater than 6.52.

Compound `NCCc1nc2ccccc2[nH]1` gave a pIC50 of less than 6.00.

Compound `NCc1cc2cc(-c3ccc(F)cc3)ccc2[nH]1` had a negative logarithm of the IC50 (pIC50) greater than 6.52.

`NCc1cc2cc(-c3cnc4ccccc4c3)ccc2[nH]1`: the pIC50 is greater than 6.52.

As for `CC(C)(C)c1ccc2oc(CN)nc2c1`, the pIC50 was greater than 6.52.

Regarding `NCc1cc2cc(Br)ccc2[nH]1`, the pIC50 is greater than 6.52.

On to `NCc1cc(Oc2cccc(C(=O)Nc3ccccc3)c2)n2ccnc2n1`, for which the negative logarithm of the IC50 (pIC50) is greater than 6.52.

`NCc1cc2occc2s1` gave a pIC50 of less than 6.00.

`NCc1nc2ncccc2[nH]1` had a pIC50 greater than 6.52.

In turn, `NCc1cc2ccc(-c3ccccc3)cc2c(=O)[nH]1` gave a pIC50 greater than 6.52.

As for `CC(CN)c1nc2ccccc2s1` (racemic), the pIC50 is 6.00 to 6.52.

`NCC(O)c1cc2ccccc2s1` (racemic) had a pIC50 of less than 6.00.

Take `NCc1cc2ccccc2[nH]1` [2-INDOLYLMETHANAMINE]: the pIC50 was 6.00 to 6.52.
